Data set [1] has as its target T1, NAD-dependent protein deacetylase sirtuin-2 (Homo sapiens, UniProt Q8IXJ6).
T1 sequence (Q8IXJ6 whole entry): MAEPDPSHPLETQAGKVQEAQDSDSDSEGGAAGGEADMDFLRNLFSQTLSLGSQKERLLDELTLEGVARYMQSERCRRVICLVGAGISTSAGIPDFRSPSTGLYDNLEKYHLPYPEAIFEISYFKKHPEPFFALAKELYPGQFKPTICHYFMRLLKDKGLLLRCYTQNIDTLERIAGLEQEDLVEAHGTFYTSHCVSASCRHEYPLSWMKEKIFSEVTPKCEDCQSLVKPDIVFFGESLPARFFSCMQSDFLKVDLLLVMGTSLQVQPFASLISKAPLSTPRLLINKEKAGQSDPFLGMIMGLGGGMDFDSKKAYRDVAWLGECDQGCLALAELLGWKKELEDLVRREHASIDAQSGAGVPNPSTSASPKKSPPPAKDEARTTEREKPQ
Put plainly: Inhibition of recombinant SIRT2 (unknown origin) deacetylase activity using Ac-RHKK(Ac)-MCA as substrate incubated for 60 mins in presence of NAD by fluorogenic assay.

Data set [2] deals with Panel NCI-60 (60 carcinoma cell lines). The experiment in a line: Growth inhibition of human Panel NCI-60 (60 carcinoma cell lines) cells incubated for 48 hrs by SRB assay. It counts as functional.
For data set [3] the test system is unchanged. Put plainly: Antiproliferative activity against human Panel NCI-60 (60 carcinoma cell lines) cells assessed as inhibition of cell growth incubated for 48 hrs by SRB assay. It counts as functional. (Sulforhodamine B stains cellular protein and so reports cell mass.)
Data set [4] has as its system MCF7. The experiment in a line: Cell cycle arrest in human MCF7 cells assessed as G0-G1 phase cells incubated for 24 hrs by flow cytometric analysis (reference value: 55.8 %). It counts as functional. Background: In flow cytometry, cells or beads pass a laser one at a time.
Data set [5] in a line: Selectivity ratio of IC50 for antiproliferative activity against spontaneous remission leukemia cell line (unknown origin) to IC50 for cytotoxicity against human PBMC cells. The class given is toxicity, cell-based. The following applies: read-out: Ratio IC50.
Data set [6] addresses T2, NAD-dependent protein deacetylase sirtuin-2 (Homo sapiens) (UniProt Q8IXJ6).
T2 sequence (whole entry): T1 sequence (Q8IXJ6 whole entry)
The experiment in a line: Inhibition of SIRT2 in human MCF7 cells assessed as induction of eIF5A acetylation incubated for 24 hrs by immunoblotting analysis. It counts as cell-based. As to conditions: dose 2-10 µM.

In data set [7] the test system is MCF7. Put plainly: Cell cycle arrest in human MCF7 cells assessed as accumulation of S phase cells incubated for 24 hrs by flow cytometric analysis (reference value: 26.6 %). The class given is functional.
The next data set deals with DNA. Put plainly: Induction of DNA (unknown origin) cleavage. It counts as nucleic-acid assay.
A short description of data set [8]: Cytotoxicity against human PBMC cells assessed as cell viability at 1 uM incubated for 2 days by MTT assay relative to control. It counts as toxicity, cell-based. The following applies: time 2 day, read-out: Activity. A general note: Tetrazolium dyes change colour on reduction, which living cells bring about.
The subject of data set [9] is MCF7. Put plainly: Cell cycle arrest in human MCF7 cells assessed as accumulation of G2/M phase cells incubated for 24 hrs by flow cytometric analysis (reference value: 18 %). The class given is functional.
Data set [10] in a line: Cytotoxicity against human PBMC cells assessed as cell viability at 10 uM incubated for 2 days by MTT assay relative to control. It counts as toxicity, cell-based. The following applies: time 2 day, read-out: Activity.
A short description of data set [11]: Cytotoxicity against human PBMC cells assessed as cell viability incubated for 2 days by MTT assay. It counts as toxicity, cell-based.
In data set [12] the test system is Panel NCI-60 (60 carcinoma cell lines). The experiment in a line: Antiproliferative activity against human Panel NCI-60 (60 carcinoma cell lines) cells assessed as decrease in cell count incubated for 48 hrs by SRB assay. It counts as functional.
Data set [13] is described as follows: Selectivity ratio of IC50 for antiproliferative activity against human MOLT-4 cells to IC50 for cytotoxicity against human PBMC cells. It counts as toxicity, cell-based. The following applies: MOLT-4 cells and PBMC cells, read-out: Ratio IC50.

Molecules are shown by their SMILES. Active and inactive are the calls of the source. The rule behind the calls is not given here.

The results in this text go back to ChEMBL document CHEMBL5500335, “Ligand-based design and synthesis of new trityl histamine and trityl cysteamine derivatives as SIRT2 inhibitors for cancer therapy” (Eur J Med Chem, 2024).

In general, IC50 refers to the point on the concentration scale where inhibition reaches its midpoint. What is called GI50 is the concentration that inhibits growth by half. Low readings indicate greater sensitivity of the cells, high ones lower sensitivity of the cells. By TGI is commonly meant the concentration giving total growth inhibition. For `CN(C)c1ccnc(CNCCCSC(c2ccccc2)(c2ccccc2)c2ccccc2)c1`, in data set [1], the IC50 was determined as 26100 nM. The GI50 in data set [2] was 1550 nM. The TGI in data set [3] worked out at 3190 nM.
Turning to `COc1ccc(C2(SCCNCc3cc(N(C)C)ccn3)c3ccccc3C=Cc3ccccc32)cc1`, the IC50 in data set [1] was 5630 nM. The Activity is on record as 26.7% in the data set with MCF7 [4], 29.4% with MCF7 [7] and 46.5% in the data set on MCF7 [9]. In addition, the figures for the selectivity ratio in data set [5] and in [13] were 25 and 2.2, respectively. The inhibition result in data set [6] was “Dose-Dependent Effect”. Moreover, the outcome in the data set on DNA was inactive. The viability at 48 h, 1 µM in [8] was found to be 84.9%. In data set [10], the viability at 48 h, 10 µM was found to be 16.2%. For the same molecule, halving of growth in data set [2] (GI50) required 40 nM. For the same molecule, the TGI in data set [3] was ≥ 70 nM. Moreover, in [11], the IC50 at 2 days was > 1000 nM. In data set [12], the LC50 (50% net cell kill) is ≥ 720 nM.
For the molecule `CN(C)c1ccnc(CNCCSC2c3ccccc3C=Cc3ccccc32)c1`, in data set [1], the IC50 was > 50000 nM.
`COc1ccc(C2(SCCNCc3cc(N(C)C)ccn3)c3ccccc3CCc3ccccc32)cc1`: in [1], the IC50 is 8630 nM. The same molecule had a concentration for 50% growth inhibition (GI50) in data set [2] of 190 nM. In data set [3], the TGI turned out to be 440 nM.
Consider `CCN(CC)c1ccnc(CNCCSC(c2ccccc2)(c2ccccc2)c2ccc(C)cc2)c1`, for which the IC50 in [1] came out at 27300 nM. The same molecule yielded a GI50 in [2] of 1380 nM. Besides, the TGI in data set [3] turned out to be 2850 nM. The LC50 (50% net cell kill) in data set [12] was ≥ 5590 nM.
For `COc1ccc(C(SCCNCc2cc(N(C)C)ccn2)(c2ccccc2)c2ccccc2)cc1`, the IC50 in [1] is 12400 nM. The same molecule yielded a GI50 in [2] of 210 nM. In addition, the TGI in [3] was ≥ 480 nM. For the same molecule, the LC50 (50% net cell kill) in data set [12] is ≥ 1820 nM.
In the case of `CN(C)c1ccnc(CNCCSC2(c3ccccc3)c3ccccc3C=Cc3ccccc32)c1`, the IC50 in [1] turned out to be 12000 nM. Growth in data set [2] was halved (GI50) at 220 nM. In addition, the TGI in data set [3] is ≥ 500 nM. Moreover, the LC50 (50% net cell kill) in data set [12] was ≥ 2170 nM.
As for `CN(C)c1ccnc(CNCCSC2(c3ccc(C(F)(F)F)cc3)c3ccccc3CCc3ccccc32)c1`, the IC50 in [1] is 49600 nM. The molecule further yielded a GI50 in data set [2] of 180 nM. In addition, the concentration for total growth inhibition (TGI) in data set [3] turned out to be 370 nM. The LC50 (50% net cell kill) in data set [12] is ≥ 4770 nM.
For `CCN(CC)c1ccnc(CNCCSC(c2ccccc2)(c2ccccc2)c2ccc(OC)cc2)c1` the same measures were 14200 nM, 1300 nM, 3060 nM and ≥ 5590 nM.
For `CN(C)c1ccnc(CNCCSC2(c3ccc(C(F)(F)F)cc3)c3ccccc3C=Cc3ccccc32)c1` the same measures were > 50000 nM, 610 nM, 4390 nM and ≥ 10000 nM.
For the molecule `CCN(CC)c1ccnc(CNCCc2cn(C(c3ccccc3)(c3ccccc3)c3ccccc3)cn2)c1`, the 50% inhibitory concentration (IC50) in data set [1] was found to be 15400 nM. In addition, growth in [2] was halved (GI50) at 1030 nM. Moreover, in data set [3], the TGI is ≥ 3200 nM.
On to `CCN(CC)c1ccnc(CNC(Cc2cn(C(c3ccccc3)(c3ccccc3)c3ccccc3)cn2)C(=O)OC)c1` (centres undefined), for which, in data set [1], the IC50 stood at 7610 nM.
Take `CN(C)c1ccnc(CNCCSC2(c3ccccc3)c3ccccc3CCc3ccccc32)c1`: in data set [1], the IC50 is 10600 nM. Moreover, growth in [2] was halved (GI50) at 1510 nM. In addition, the TGI in [3] was ≥ 2930 nM.
In the same order, the values of `CN(C)c1ccnc(CNCCc2cn(C(c3ccccc3)(c3ccccc3)c3ccccc3)cn2)c1` are 8620 nM, 260 nM and 1190 nM.
Take `Cc1ccc(C(SCCNCc2cc(N(C)C)ccn2)(c2ccccc2)c2ccccc2)cc1`: the IC50 in data set [1] was determined as 9910 nM. This molecule gave a GI50 in [2] of 370 nM. The concentration for total growth inhibition (TGI) in [3] stood at 1570 nM. In data set [12], the LC50 (50% net cell kill) is ≥ 4650 nM.
